Measured values taken from patent US11524014B2, “Pharmaceutical formulations and systems for delivery of an androgenic agent and an aromatase inhibitor with sustained multi-phasic release profiles and methods of use” (Havah Therapeutics Pty Ltd., priority 2019, dated 2022).
Several values for one entry are separate records, joined by “and”; a condition that tells them apart may be missing. Equal entries are not always repeated. Where two headings read alike, the source gives them in different places.

Assays:
clinical = conditions: female, human, in vivo; for half-life: t1/2, arithmetic mean (terminal half-life)
Method: Pre-menopausal women with high Mammographic Breast Density (MBD) was selected for the study. Following the successful screening, participants came to the Wellend Clinic South Australia for dosing. The participants were to be dosed while in the luteal phase of their menstrual cycle to avoid the highly changing hormonal environment of the follicular phase. Following insertion of the implant, PK blood sampling was carried out for a duration of three months. Briefly, samples were taken repeatedly on the day of dosing, daily during the first week, weekly for the next four weeks and every second week during the last eight weeks, for a total sampling period of three months. After assessments had been completed on the last day of assessments, Day 85, the trial concluded.
The sampling schedule was revised with the addition of one blood sample (at 6 hours post-dose), and no adjustment of the timing of existing time points. The duration of sampling was not extended.
In summary, following dosing on Day 1, blood samples were taken pre-dose (within one hour of dosing) and at 1, 2, 4, 6, 8 and 12 hours. Participants returned for a blood sample to be taken at 9 am in the morning on Days 2, 3, 4, 5, 8, 15, 22, 29, 43, 57, 71 and 85.
A total of 11 subjects were dosed and included in the safety analysis set. Eleven subjects were included in the PK analysis set. Women were aged between 35 and 55 years of age, Body Mass Index (BMI) range of 20-30 kg/m^2.

[1] = oral anastrozole; cited from earlier work
[2] = Population pharmacokinetic modelling of anastrozole from the Example 1 trial; format: in vivo, human
Method: Data in these figures are presented as mean+/−standard deviation. […] The percentage change from baseline was calculated for the average volume and plotted against time in months. […] In FIG. 8A, the data on the X axis is plotted in time (hours) after transplantation. In FIG. 8B the X axis is on a log scale. In FIGS. 8A-B, the open circles equal observed data, the black line equals median PK profile, and the dashed dark grey line equals lower limit of quantification (0.1 ng/mL).
One and two compartment models were fitted to the data. Several absorption models were tested such as first and zero order, mixed order, as well as transit compartments. Model selection was performed on the basis of statistical criteria (objective function) as well as visual inspection of diagnostic plots. […] Between-subject variability (BSV) was included on apparent clearance (CL/F), apparent volume of distribution for the central compartment (Vc/F) and the first-order absorption rate constant (KA). A proportional error model was used to describe residual unexplained variability (RUV).

IL-6 = conditions: female breast cells treated with testosterone (Guhl, 2012); cited from earlier work
[3] = two-compartment model with dual input, T+Ai implant, n=11

SMILES: CC(C)(C#N)c1cc(Cn2cncn2)cc(C(C)(C)C#N)c1 [Anastrozole, 2,2′-[5-(1H-1,2,4-triazol-1-ylmethyl)-1,3-phenylene]bis(2-methylpropanenitrile)]
- concentration at 12 weeks (clinical): < 0.1 ng/mL
- Tmax (clinical; sc, Tmax, median, single s.c. T+Ai implant 80 mg/4 mg, women, n=11, anastrozole in plasma, testosterone in serum): 48.6 h
- Tmax (clinical; sc, median Tmax post-dose, plasma anastrozole after single s.c. T+Ai implant, range 1-3 days): 48 h
- half-life (clinical; sc): 14 days
- t1/2, arithmetic mean (terminal half-life) (female, human, in vivo, sc): 13.6 days
- CL/F, arithmetic mean (NCA) (human, in vivo, sc): 1.88 L/h
- half-life [1]: 2 days
- Fraction absorbed via second input ([2]; fixed in the model (FIX)): 0.5 FIX
- Absorbtion rate constant (ka) first input, estimated value (% RSE) [2, 3]: 0.119 (20.6) /hr
- Absorbtion rate constant (ka) second input, estimated value (% RSE) [2, 3]: 0.148 (20.5) /hr
- Apparent central volume of distribution (Vc/F), estimated value (% RSE) [2, 3]: 672 (3.0) L
- Apparent clearance (CL/F), estimated value (% RSE) [2, 3]: 1.77 L/hr and 1.77 (6.9) L/hr
- Apparent peripheral volume of distribution (Vp/F), estimated value (% RSE) [2, 3]: 106 (29.8) L
- Inter-compartmental clearance (Q/F), estimated value (% RSE) [2, 3]: 0.97 (57.7) L/hr
- Lagged time for second input, estimated value (% RSE) [2, 3]: 3.77 (9.7) h

SMILES: C[C@]12CC[C@H]3[C@@H](CCC4=CC(=O)CC[C@@]43C)[C@@H]1CC[C@@H]2O [Testosterone, testosterone]
- Tmax (clinical; sc): 8 h
- Cmax (clinical; sc, Cmax, arithmetic mean, single s.c. T+Ai implant 80 mg/4 mg, women, n=11, anastrozole in plasma, testosterone in serum): 4.1 ng/mL
- half-life (clinical; sc, single s.c. T+Ai implant 80 mg/4 mg, women, n=11, anastrozole in plasma, testosterone in serum): 42.8 days
- time of second lower serum peak (serum testosterone after single s.c. T+Ai implant): 2-3 weeks
- Cmax, arithmetic mean (single s.c. T+Ai implant 80 mg/4 mg, women, n=11, anastrozole in plasma, testosterone in serum): 4.08 ng/mL
- reduction of IL-6 levels (IL-6): 53%

SMILES: C[C@]12CCC(=O)C[C@@H]1CC[C@@H]1[C@@H]2CC[C@]2(C)[C@@H](O)CC[C@@H]12 [dihydrotestosterone, 5 alpha dihydrotestosterone]
- Tmax (clinical; Tmax post-dose, serum dihydrotestosterone, participants with measurable maximal values): 48 to 72 h
- serum level measurability (serum dihydrotestosterone after single s.c. T+Ai implant): not measurable in most samples
